# Measured values as given in US8362204B2 (priority 2006, dated 2013).
# Where “and” joins values, the source holds several entries; their conditions need not be identical. Equal values may be shown once.
# Target: T1, neuronal-type nicotinic receptors (Bos taurus, UniProt Q07263+Q8SPU6)
# T1 construct: monolayer cultures of bovine adrenal chromaffin cells; endogenous in cells; host or cells: bovine adrenal chromaffin cells (primary monolayer cultures)
# Assay type: cell-based, Bovine
# T1 sequence (Q07263 22-495): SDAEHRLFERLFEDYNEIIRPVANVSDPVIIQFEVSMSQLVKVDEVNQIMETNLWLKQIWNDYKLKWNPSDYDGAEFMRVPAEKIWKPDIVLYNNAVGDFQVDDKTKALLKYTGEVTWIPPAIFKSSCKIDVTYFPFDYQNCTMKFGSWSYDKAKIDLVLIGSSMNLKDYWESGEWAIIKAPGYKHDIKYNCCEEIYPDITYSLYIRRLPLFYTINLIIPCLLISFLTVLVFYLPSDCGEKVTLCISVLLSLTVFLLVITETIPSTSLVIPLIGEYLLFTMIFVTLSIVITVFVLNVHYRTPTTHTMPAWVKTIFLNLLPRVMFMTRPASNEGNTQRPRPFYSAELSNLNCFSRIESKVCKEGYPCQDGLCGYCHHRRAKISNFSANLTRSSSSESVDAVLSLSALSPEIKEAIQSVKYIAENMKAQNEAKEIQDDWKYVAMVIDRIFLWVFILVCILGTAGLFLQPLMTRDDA
# T1 sequence (Q8SPU6 20-496): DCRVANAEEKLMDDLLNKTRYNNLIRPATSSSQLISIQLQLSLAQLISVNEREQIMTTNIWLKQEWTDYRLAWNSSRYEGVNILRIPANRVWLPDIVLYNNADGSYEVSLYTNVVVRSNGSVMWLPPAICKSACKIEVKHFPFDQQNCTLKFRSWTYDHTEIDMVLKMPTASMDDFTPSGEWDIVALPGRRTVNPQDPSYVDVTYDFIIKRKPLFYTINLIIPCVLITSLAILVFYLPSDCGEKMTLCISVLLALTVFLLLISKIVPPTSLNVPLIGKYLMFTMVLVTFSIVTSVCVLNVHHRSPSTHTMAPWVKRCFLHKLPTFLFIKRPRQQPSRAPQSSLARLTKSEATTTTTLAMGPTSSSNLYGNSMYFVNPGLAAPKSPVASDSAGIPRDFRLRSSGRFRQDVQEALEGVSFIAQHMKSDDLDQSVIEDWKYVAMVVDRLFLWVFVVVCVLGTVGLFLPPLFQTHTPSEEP
smiles,measurement,value
"CN1CCCC1c1cccnc1 (centres unmarked) [NICOTINE, nicotine, reference compound]","Adrenaline Release, 1st-4th (individual wells)",4.31% and 4.52% (2×) and 4.48%
same,"Adrenaline Release, mean",4.46%
same,"Noradrenaline Release, 1st-4th (individual wells)",6.62% and 6.89% (2×) and 6.99%
same,"Noradrenaline Release, mean",6.85%
same,"noradrenaline released, basal release (0.72%) subtracted",6.13%
